The text below walks through data of patent US4716175A, “Saturated fatty acid amides as inhibitors of acyl-CoA:cholesterol acyltransferase” (Warner-Lambert Company, priority 1987, dated 1987).

Each structure is given as a SMILES string.

The first test addresses T1, acyl-CoA:cholesterol acyltransferase (ACAT) (Oryctolagus cuniculus, UniProt G1SFD9).
T1 construct: tissue preparation containing rabbit intestinal microsomes; from tissue; host or cells: rabbit intestinal microsomes
T1 sequence (G1SFD9 1-524): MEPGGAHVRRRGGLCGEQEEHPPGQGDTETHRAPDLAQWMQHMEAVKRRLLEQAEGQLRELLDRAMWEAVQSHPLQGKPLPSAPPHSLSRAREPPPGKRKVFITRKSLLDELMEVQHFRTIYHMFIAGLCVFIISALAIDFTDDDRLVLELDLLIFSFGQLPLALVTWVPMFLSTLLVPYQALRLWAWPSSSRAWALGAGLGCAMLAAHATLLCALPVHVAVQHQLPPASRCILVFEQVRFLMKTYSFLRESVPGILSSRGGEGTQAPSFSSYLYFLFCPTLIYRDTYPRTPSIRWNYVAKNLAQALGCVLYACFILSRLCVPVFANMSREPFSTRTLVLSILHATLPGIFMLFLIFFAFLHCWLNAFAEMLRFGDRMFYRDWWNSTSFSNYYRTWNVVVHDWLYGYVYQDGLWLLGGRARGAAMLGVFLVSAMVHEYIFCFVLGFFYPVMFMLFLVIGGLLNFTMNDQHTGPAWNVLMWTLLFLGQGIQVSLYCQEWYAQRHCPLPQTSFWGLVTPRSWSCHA
Nature of the test: in vitro inhibition of ACAT (cholesterol esterification by radio-labeled oleic acid, rabbit intestinal microsomes). The class given is biochemical.
Conditions: not given
An excerpt:
The test assesses the ability of a compound to inhibit the acylation of cholesterol by oleic acid by measuring the amount of radio-labeled cholesterol oleate formed from radio-labeled oleic acid in a tissue preparation containing rabbit intestinal microsomes.
As usually defined, the IC50 is the concentration at which inhibition is half-maximal. A high value points to weaker potency. Turning to `CCCCCCCCCCC(C)(C)C(=O)Nc1c(C)cccc1OCC` [N-(2-Ethoxy-6-methylphenyl)-2,2-dimethyl-dodecanamide], the half-inhibitory concentration (IC50) was 230 nM. On the same count and under the same terms, the value for `CCCCCCCC/C=C\CCCCCCCCC(C)(C)C(=O)Nc1c(OC)ncnc1OC` [(Z)-N-(4,6-dimethoxy-5-pyrimidinyl)-2,2-dimethyl-11-eicosenamide] was 780 nM; that for `CCCCCCCCCCC(Cc1ccccc1)C(=O)NC(C)c1ccccn1` (stereo not drawn) [α-Decyl-N-[1-(2-pyridinyl)ethyl]benzenepropanamide] was 7000 nM; that for `CCCCCCCC/C=C\CCCCCCCCC(C)(C)C(=O)Nc1c(OC)cc(OC)cc1OC` [(Z)-2,2-Dimethyl-N-(2,4,6-trimethoxyphenyl)-11-eicosenamide] was 110 nM. `CCCCCCCCCCCCCCC(C)C(=O)NC(C)c1ccccn1` (centres unmarked) [2-methyl-N-[1-(2-pyridinyl)ethyl]hexadecanamide] showed an IC50 of 1400 nM. Compound `CCCCCCCCCCCCCCC(C)(C)C(=O)NC(C)c1ccccn1` (centres unmarked) [2,2-Dimethyl-N-[1-(2-pyridinyl)ethyl]hexadecanamide] displayed a 50% inhibitory concentration (IC50) of 700 nM. This IC50 lies about 2-fold lower than the previous one. Same read-out and setting: under `CCCCCCCCCCC(CC)C(=O)NC(C)c1ccccn1` (centres unmarked) [2-Ethyl-N-[1-(2-pyridinyl)ethyl]dodecanamide] stands 1600 nM; under `CCCCCCCCCCC1(C(=O)Nc2c(OC)cc(OC)cc2OC)CCCC1` [1-Decyl-N-(2,4,6-trimethoxyphenyl)cyclopentanecarboxamide], 7 nM. Same read-out and setting: under `CCCCCCCCCCC(C)C(=O)NC(C)c1ccccn1` (centres unmarked) [2-Methyl-N-[1-(2-pyridinyl)ethyl]dodecanamide] stands 3300 nM. The same measure, in the same setting: the value for `CCCCCCCCCCCCC(C)C(=O)Nc1c(OC)ncnc1OC` (centres unmarked) [N-(4,6-dimethoxy-5-pyrimidinyl)-2-methyltetradecanamide] was 400 nM. Consider `CCCCCCCCCCCCC(C)(C)C(=O)Nc1c(OC)ncnc1OC` [N-(4,6-dimethoxy-5-pyrimidinyl)-2,2-dimethyltetradecanamide], for which the midpoint of inhibition, the IC50, lay at 1300 nM. Same read-out and setting: under `CCCCCCCC/C=C\CCCCCCC(C)C(=O)Nc1c(OC)cc(OC)cc1OC` (centres unmarked) [(Z)-2-methyl-N-(2,4,6-trimethoxyphenyl)-9-octadecenamide] stands 34 nM. On the same count and under the same terms, under `CCCCCCCCCCCCC(CC)C(=O)Nc1c(OC)ncnc1OC` (centres unmarked) [N-(4,6-Dimethoxy-5-pyrimidinyl)-2-ethyltetradecanamide] stands 260 nM. The same measure, in the same setting: the value for `CCCCCCCC/C=C\CCCCCCCCC(C)(C)C(=O)Nc1c(C)cccc1OC` [(Z)-N-(2-Methoxy-6-methylphenyl)-2,2-dimethyl-11-eicosenamide] was 680 nM; that for `CCCCCCCCCCCCC(C)C(=O)NC(C)c1ccccn1` (centres unmarked) [2-Methyl-N-[1-(2-pyridinyl)ethyl]tetradecanamide] was 800 nM.

For the compound `CCCCCCCCCCCCC(CC)C(=O)Nc1c(OC)cc(OC)cc1OC` (centres unmarked) [2-Ethyl-N-(2,4,6-trimethoxyphenyl)tetradecanamide], it took 50 nM to reach half-maximal inhibition (IC50). This IC50 lies about 16-fold lower than the previous one. Still for that read-out and setting: the value for `CCCCCCCCCCCCC(C)C(=O)Nc1c(OCC)ncnc1OCC` (centres unmarked) [N-(4,6-Diethoxy-5-pyrimidinyl)-2-methyltetradecanamide] was 500 nM; that for `CCCCCCCCCCC(CCC)C(=O)NC(C)c1ccccn1` (centres unmarked) [2-Propyl-N-[1-(2-pyridinyl)ethyl]dodecanamide] was 3700 nM. On the same count and under the same terms, under `CCCCCCCCCCCCC(CC)C(=O)NC(C)c1ccccn1` (centres unmarked) [2-ethyl-N-[1-(2-pyridinyl)ethyl]tetradecanamide] stands 700 nM; under `CCCCCCCCCCC(C)(C)C(=O)Nc1c(OC)ncnc1OC` [N-(4,6-Dimethoxy-5-pyrimidinyl)-2,2-dimethyldodecanamide], 230 nM.

A further test relates to serum cholesterol. Briefly: cholesterol-fed rabbit test. In kind it is in vivo, male, New Zealand white rabbits. The note with it: oral 50 mg/kg thirty minutes prior to each meal for seven days, serum cholesterol three hours after last meal. The source says:
In the cholestrol-fed rabbit test, male, New Zealand white rabbits weighing approximately 1 kg were fed a normal diet 40 g per day of rabbit chow (Purina NO. 5321, Ralston Purina Co., 711 West Fuesser Road, Mascoutah, Ill., 62224, USA). After six days on this diet, the rabbits were fed 50 g per day for three days of a cholsterol-enriched diet consisting of one part of a cholesterol-containing chow (Purina Catalog No. 841206WLI, 0.25% cholesterol) and two parts of normal chow. Next, the rabbits were fed 60 g per day for four days of a cholsterol-enriched diet consisting of two parts of a cholesterol-containing chow (Purina Catalog No. 841206WLI, 0.25% cholesterol) and one part of normal chow.
After this meal adaptation and cholesterol loading period, the test compounds of this invention were administered to the test animals in oral doses of 50 mg/kg of body weight thirty minutes prior to each meal for seven days. Control animals were administered vehicle only.
The animals were sacrificed three hours after their last meal in the postabsorptive state. Serum cholesterol levels were determined for each animal, and the data appear in Table 2 expressed as percent change in serum cholesterol level compared to control.
For the compound `CCCCCCCCCCC(C)(C)C(=O)Nc1c(OC)cc(OC)cc1OC` [2,2-Dimethyl-N-(2,4,6-trimethoxyphenyl)dodecanamide], the “Percent Reduction in Cholesterol, Rabbit (percent change in serum cholesterol level compared to control)” value is listed as -67%. Take `CCCCCCCCCCCCC(C)C(=O)Nc1c(OC)ncnc1OC` (centres unmarked) [N-(4,6-dimethoxy-5-pyrimidinyl)-2-methyltetradecanamide]: the “Percent Reduction in Cholesterol, Rabbit (percent change in serum cholesterol level compared to control)” value is recorded as -29%. On the same count and under the same terms, the value for `CCCCCCCCCCCCC(C)C(=O)Nc1c(OC)cc(OC)cc1OC` (centres unmarked) [2-Methyl-N-(2,4,6-trimethoxyphenyl)tetradecanamide] was -45%.

The test system of the next test is total cholesterol. Nature of the test: cholesterol-fed rat test. In kind it is in vivo, male, Sprague-Dawley rats. The conditions noted are these: drug admixed in diet with 5.5% peanut oil, 1.5% cholesterol and 0.3% cholic acid, one week, nonfasted. The source says:
In the cholesterol-fed rat test, male, Sprague-Dawley rats (approximately 200 g body weight) were randomly divided into groups and provided ad libitum a regular rat chow diet (Purina No. 5002) supplemented with 5.5% peanut oil, 1.5% cholesterol and 0.3% cholic acid, with or without drug admixed at the indicated levels (w/w). After one week, the animals (nonfasted) were etherized and blood was taken from the heart into EDTA (0.14% final concentration) to measure total cholesterol using the Abbott VP Analyzer.
Regarding `CCCCCCCCCCC(C)(C)C(=O)Nc1c(OC)cc(OC)cc1OC` [2,2-Dimethyl-N-(2,4,6-trimethoxyphenyl)dodecanamide], the “Percent Reduction in Cholesterol, Rat” value is recorded as -54%.

As for `CCCCCCCCCCC1(C(=O)Nc2c(OC)cc(OC)cc2OC)CCCC1` [1-Decyl-N-(2,4,6-trimethoxyphenyl)cyclopentanecarboxamide], the “Percent Reduction in Cholesterol, Rat” value is listed as -52%. Regarding `CCCCCCCCCCCCC(C)C(=O)Nc1c(OC)cc(OC)cc1OC` (centres unmarked) [2-Methyl-N-(2,4,6-trimethoxyphenyl)tetradecanamide], the “Percent Reduction in Cholesterol, Rat” value is -52%.
